Laboratory results from ChEMBL document CHEMBL1629541, “Synthesis and structure-activity relationships of aza- and diazabiphenyl analogues of the antitubercular drug (6S)-2-nitro-6-{[4-(trifluoromethoxy)benzyl]oxy}-6,7-dihydro-5H-imidazo[2,1-b][1,3]oxazine (PA-824)” (J Med Chem, 2010).
Converted amounts (≈) assume the structure as drawn.

How the values were obtained:
physchem = conditions: water, pH 7
Description: Solubility of the compound in water at pH 7.0 by HPLC

[1] = system: Mycobacterium tuberculosis; assay: microbe, parasite or virus in culture; conditions: H37Rv
[2] = system: Mycobacterium tuberculosis; assay: microbe, parasite or virus in culture; conditions: H37Rv; remark: listed apart in the source
Description: Antitubercular activity against Mycobacterium tuberculosis H37Rv by LORA method

Compound | solubility (physchem) | MIC [1] | MIC [2]
N#Cc1ccc(-c2cc(CO[C@@H]3COc4nc([N+](=O)[O-])cn4C3)ccn2)cc1 | 8 µg/mL (≈ 21.2 µM) | 0.38 µM (≈ 0.143 µg/mL) | 13 µM (≈ 4.91 µg/mL)
O=[N+]([O-])c1cn2c(n1)OC[C@@H](OCc1ccnc(-c3ccc(F)cc3)c1)C2 | 31 µg/mL (≈ 83.7 µM) | 0.17 µM (≈ 0.063 µg/mL) | 1.2 µM (≈ 0.444 µg/mL)
O=[N+]([O-])c1cn2c(n1)OC[C@@H](OCc1ccnc(-c3ccc(OC(F)F)cc3)c1)C2 | 16 µg/mL (≈ 38.2 µM) | 0.055 µM (≈ 0.023 µg/mL) | 2.7 µM (≈ 1.13 µg/mL)
COc1ccc(-c2cc(CO[C@@H]3COc4nc([N+](=O)[O-])cn4C3)ccn2)cc1F | 7.2 µg/mL (≈ 18 µM) | 0.34 µM (≈ 0.136 µg/mL) | 6.2 µM (≈ 2.48 µg/mL)
COc1ccc(-c2cc(CO[C@@H]3COc4nc([N+](=O)[O-])cn4C3)ccn2)cn1 | 93 µg/mL (≈ 243 µM) | 1.3 µM (≈ 0.498 µg/mL) | 12 µM (≈ 4.6 µg/mL)
O=[N+]([O-])c1cn2c(n1)OC[C@@H](OCc1cncc(-c3ccc(C(F)(F)F)cc3)c1)C2 | 2.8 µg/mL (≈ 6.66 µM) | 0.15 µM (≈ 0.0631 µg/mL) | 3.5 µM (≈ 1.47 µg/mL)
N#Cc1ccc(-c2cncc(CO[C@@H]3COc4nc([N+](=O)[O-])cn4C3)c2)cc1 | 29 µg/mL (≈ 76.8 µM) | 0.69 µM (≈ 0.26 µg/mL) | 18 µM (≈ 6.79 µg/mL)
O=[N+]([O-])c1cn2c(n1)OC[C@@H](OCc1cncc(-c3ccc(OC(F)(F)F)cc3)c1)C2 | 9.5 µg/mL (≈ 21.8 µM) | 0.17 µM (≈ 0.0742 µg/mL) | 2.4 µM (≈ 1.05 µg/mL)
O=[N+]([O-])c1cn2c(n1)OC[C@@H](OCc1cncc(-c3ccc(OC(F)F)cc3)c1)C2 | 9.2 µg/mL (≈ 22 µM) | 0.53 µM (≈ 0.222 µg/mL) | 5.9 µM (≈ 2.47 µg/mL)
COc1ccc(-c2cncc(CO[C@@H]3COc4nc([N+](=O)[O-])cn4C3)c2)cc1F | 24 µg/mL (≈ 59.9 µM) | 0.91 µM (≈ 0.364 µg/mL) | 9 µM (≈ 3.6 µg/mL)
COc1ccc(-c2cncc(CO[C@@H]3COc4nc([N+](=O)[O-])cn4C3)c2)cn1 | 31 µg/mL (≈ 80.9 µM) | 2.8 µM (≈ 1.07 µg/mL) | 22 µM (≈ 8.43 µg/mL)
O=[N+]([O-])c1cn2c(n1)OC[C@@H](OCc1cc(-c3ccc(C(F)(F)F)cc3)ccn1)C2 | 43 µg/mL (≈ 102 µM) | 0.88 µM (≈ 0.37 µg/mL) | 24 µM (≈ 10.1 µg/mL)
N#Cc1ccc(-c2ccnc(CO[C@@H]3COc4nc([N+](=O)[O-])cn4C3)c2)cc1 | 19 µg/mL (≈ 50.3 µM) | 2.1 µM (≈ 0.792 µg/mL) | > 32 µM
O=[N+]([O-])c1cn2c(n1)OC[C@@H](OCc1cc(-c3ccc(F)cc3)ccn1)C2 | 16 µg/mL (≈ 43.2 µM) | 0.46 µM (≈ 0.17 µg/mL) | 28 µM (≈ 10.4 µg/mL)
O=[N+]([O-])c1cn2c(n1)OC[C@@H](OCc1cc(-c3ccc(OC(F)(F)F)cc3)ccn1)C2 |  | 0.76 µM (≈ 0.332 µg/mL) | 18 µM (≈ 7.85 µg/mL)
O=[N+]([O-])c1cn2c(n1)OC[C@@H](OCc1cc(-c3ccc(OC(F)F)cc3)ccn1)C2 | 86 µg/mL (≈ 206 µM) | 0.67 µM (≈ 0.28 µg/mL) | 26 µM (≈ 10.9 µg/mL)

Compound | solubility (physchem) | MIC [1] | MIC [2]
COc1ccc(-c2ccnc(CO[C@@H]3COc4nc([N+](=O)[O-])cn4C3)c2)cc1F | 25 µg/mL (≈ 62.4 µM) | 2.3 µM (≈ 0.921 µg/mL) | 16 µM (≈ 6.41 µg/mL)
COc1ccc(-c2ccnc(CO[C@@H]3COc4nc([N+](=O)[O-])cn4C3)c2)cn1 | 96 µg/mL (≈ 250 µM) | 3.8 µM (≈ 1.46 µg/mL) | 31 µM (≈ 11.9 µg/mL)
O=[N+]([O-])c1cn2c(n1)OC[C@@H](OCc1ccc(-c3ccc(C(F)(F)F)cc3)cn1)C2 | 2.3 µg/mL (≈ 5.47 µM) | 0.04 µM (≈ 0.0168 µg/mL) | 3.4 µM (≈ 1.43 µg/mL)
N#Cc1ccc(-c2ccc(CO[C@@H]3COc4nc([N+](=O)[O-])cn4C3)nc2)cc1 | 45 µg/mL (≈ 119 µM) | 0.18 µM (≈ 0.0679 µg/mL) | 7.5 µM (≈ 2.83 µg/mL)
O=[N+]([O-])c1cn2c(n1)OC[C@@H](OCc1ccc(-c3ccc(F)cc3)cn1)C2 |  | 0.13 µM (≈ 0.0481 µg/mL) | 3.2 µM (≈ 1.19 µg/mL)
O=[N+]([O-])c1cn2c(n1)OC[C@@H](OCc1ccc(-c3ccc(OC(F)F)cc3)cn1)C2 |  | 0.02 µM (≈ 0.00837 µg/mL) | 4 µM (≈ 1.67 µg/mL)
COc1ccc(-c2ccc(CO[C@@H]3COc4nc([N+](=O)[O-])cn4C3)nc2)cc1F | 10 µg/mL (≈ 25 µM) | 0.17 µM (≈ 0.0681 µg/mL) | 3.4 µM (≈ 1.36 µg/mL)
O=[N+]([O-])c1cn2c(n1)OC[C@@H](OCc1ccc(-c3ccc(OC(F)(F)F)cc3Cl)cn1)C2 |  | 0.14 µM (≈ 0.0659 µg/mL) | 2.6 µM (≈ 1.22 µg/mL)
O=[N+]([O-])c1cn2c(n1)OC[C@@H](OCc1ccc(-c3ccc(OC(F)(F)F)c(Cl)c3)cn1)C2 | 0.85 µg/mL (≈ 1.81 µM) | 0.04 µM (≈ 0.0188 µg/mL) | 2.4 µM (≈ 1.13 µg/mL)
O=[N+]([O-])c1cn2c(n1)OC[C@@H](OCc1ccc(-c3ccc(OC(F)(F)F)cc3F)cn1)C2 |  | 0.06 µM (≈ 0.0273 µg/mL) | 1.7 µM (≈ 0.772 µg/mL)
O=[N+]([O-])c1cn2c(n1)OC[C@@H](OCc1ccc(-c3ccc(OC(F)(F)F)cc3Cl)nc1)C2 |  | 0.03 µM (≈ 0.0141 µg/mL) | 1.6 µM (≈ 0.753 µg/mL)
O=[N+]([O-])c1cn2c(n1)OC[C@@H](OCc1cnc(-c3ccc(C(F)(F)F)cc3)nc1)C2 |  | 0.025 µM (≈ 0.0105 µg/mL) | 9.4 µM (≈ 3.96 µg/mL)
O=[N+]([O-])c1cn2c(n1)OC[C@@H](OCc1cnc(-c3ccc(F)cc3)nc1)C2 |  | 0.11 µM (≈ 0.0408 µg/mL) | 5.4 µM (≈ 2.01 µg/mL)
O=[N+]([O-])c1cn2c(n1)OC[C@@H](OCc1cnc(-c3ccc(C(F)(F)F)nc3)nc1)C2 |  | 0.16 µM (≈ 0.0676 µg/mL) | 12 µM (≈ 5.07 µg/mL)
O=[N+]([O-])c1cn2c(n1)OC[C@@H](OCc1ccccc1-c1cccnc1)C2 | 116 µg/mL (≈ 329 µM) | > 8 µM | > 32 µM
O=[N+]([O-])c1cn2c(n1)OC[C@@H](OCc1ccccc1-c1ccc(F)nc1)C2 | 35 µg/mL (≈ 94.5 µM) | > 8 µM | 16 µM (≈ 5.93 µg/mL)
